Laboratory results reported in ChEMBL document CHEMBL5131502, “Improving the treatment of Parkinson's disease: Structure-based development of novel 5-HT2A receptor antagonists/inverse agonists” (Eur J Med Chem, 2022).
Active and inactive are the calls of the source. The rule behind the calls is not given here.

Experiments:
[1] = biological target: T1, 5-hydroxytryptamine receptor 2A (Homo sapiens, UniProt P28223); assay: Antagonist activity at 5-HT2A receptor (unknown origin) expressed in CHO-K1 cells assessed as reduction in intracellular Ca2+ mobilization incubated for 15 mins by FLIPR assay; format: functional, cell-based
T1 sequence (P28223 whole entry): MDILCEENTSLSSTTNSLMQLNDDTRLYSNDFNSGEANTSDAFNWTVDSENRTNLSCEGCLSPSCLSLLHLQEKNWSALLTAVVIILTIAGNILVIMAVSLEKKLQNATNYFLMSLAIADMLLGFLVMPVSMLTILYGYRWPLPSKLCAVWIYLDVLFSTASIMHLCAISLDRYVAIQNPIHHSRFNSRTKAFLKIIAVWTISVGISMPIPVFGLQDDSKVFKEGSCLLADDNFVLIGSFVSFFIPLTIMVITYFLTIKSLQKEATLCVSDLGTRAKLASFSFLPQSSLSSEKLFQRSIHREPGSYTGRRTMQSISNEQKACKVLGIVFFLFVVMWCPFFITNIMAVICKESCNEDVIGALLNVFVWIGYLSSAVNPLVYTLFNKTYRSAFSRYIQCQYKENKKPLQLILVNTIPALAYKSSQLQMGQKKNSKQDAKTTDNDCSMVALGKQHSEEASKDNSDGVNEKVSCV

[2] = biological target: T1, 5-hydroxytryptamine receptor 2A; assay: Inverse agonist activity at 5-HT2A receptor (unknown origin) expressed in mouse NIH3T3 cells using o-nitrophenyl-D-galacto pyranoside incubated for 120 hrs; format: functional, cell-based
Rattus norvegicus = assay: Antiparkinson's activity in rat assessed as reduction in DOI-induced head-twitching at 1.5 to 6 micromol/kg, IG measured after 1 hr; format: functional, organism-based; details: dose 1.5-6 µmol/kg
[3] = biological target: T1, 5-hydroxytryptamine receptor 2A; assay: Potency index, ratio of pimavanserin IC50 to test compound IC50 for antagonist activity at 5-HT2A receptor (unknown origin) expressed in CHO-K1 cells assessed as reduction in intracellular Ca2+ mobilization incubated for 15 mins by FLIPR assay; format: functional, cell-based
[4] = biological target: T1, 5-hydroxytryptamine receptor 2A; assay: Potency index, ratio of pimavanserin IC50 to test compound IC50 for inverse agonist activity at 5-HT2A receptor (unknown origin) expressed in mouse NIH3T3 cells using o-nitrophenyl-D-galacto pyranoside incubated for 120 hrs; format: cell-based
[5] = Apparent volume of distribution during terminal state in Sprague-Dawley rat at 3 mg/kg, IG measured upto 24 hrs by LC-MS/MS analysis; format: ADME, organism-based; details: in vivo, po, read-out: Vz/F
[6] = Half life in Sprague-Dawley rat at 3 mg/kg, IG measured upto 24 hrs by LC-MS/MS analysis; format: ADME, organism-based; details: in vivo, po
[7] = Tmax in Sprague-Dawley rat at 3 mg/kg, IG measured upto 24 hrs by LC-MS/MS analysis; format: ADME, organism-based; details: in vivo, po
[8] = Cmax in Sprague-Dawley rat at 3 mg/kg, IG measured upto 24 hrs by LC-MS/MS analysis; format: ADME, organism-based; set-up: dose 3 mg/kg, time < 24 hrs, route ig; details: in vivo, po
[9] = AUClast in Sprague-Dawley rat at 3 mg/kg, IG measured upto 24 hrs by LC-MS/MS analysis; format: ADME, organism-based; set-up: time < 24 hrs, dose 3 mg/kg, route ig; details: in vivo, po
[10] = MRTlast in Sprague-Dawley rat at 3 mg/kg, IG measured upto 24 hrs by LC-MS/MS analysis; format: ADME, organism-based; details: in vivo, po

Compound	IC50 [1]	IC50 [2]	also measured
CC(C)COc1ccc(CNC(=O)N(Cc2ccc(F)cc2)C2CCN(CCN(C)C)CC2)cc1	75.4 nM	> 500 nM	
CC(C)COc1ccc(CNC(=O)N(Cc2ccc(F)cc2)C2CCCC(N(C)C)C2)cc1 (centres undefined)	> 500 nM	> 500 nM	
CC(C)CCc1ccc(CNC(=O)N(Cc2ccc(F)cn2)C2CCN(C)CC2)cc1	67.2 nM		
CC(C)c1cc2cc(CNC(=O)N(Cc3ccc(F)cn3)C3CCN(C)CC3)ccc2o1		64.9 nM	
CN1CCC(N(Cc2ccc(F)cn2)C(=O)NCc2ccc(OCC(F)(F)F)c(Br)c2)CC1	12 nM	8.85 nM	
CC(C)COc1ccc(CNC(=O)N(Cc2ccc(F)nc2)C2CCN(C)CC2)cc1	> 500 nM	> 500 nM	
CN1CCC(N(Cc2ccc(F)cn2)C(=O)NCc2ccc(OCC(F)(F)F)cc2)CC1			Activity (Rattus norvegicus): Active
CN1CCC(N(Cc2ccc(F)cn2)C(=O)NCc2ccc(OCC(F)(F)F)c(C(F)(F)F)c2)CC1	27.3 nM	30.5 nM	
CC(C)COc1ccc(CNC(=O)N(Cc2cccc3[nH]cnc23)C2CCN(C)CC2)cc1	> 500 nM	> 500 nM	Ratio IC50 [3]: > 15; Ratio IC50 [4]: > 10
CC(C)COc1ccc(CNC(=O)N(Cc2ccc(F)nn2)C2CCN(C)CC2)cc1		> 500 nM	
Cc1noc(C)c1CN(C(=O)NCc1ccc(OCC(C)C)cc1)C1CCN(C)CC1	> 500 nM	> 500 nM	
CC(C)COc1ccc(CNC(=O)N(Cc2ccc(F)cc2)C2CC(N(C)C)C2)cc1 (centres undefined)	139 nM	159 nM	
CC(C)COc1ccc(CNC(=O)N(Cc2ccc(F)cc2)C2CCN(C)CC2)cc1.O=C(O)C(O)C(O)C(=O)O			Vd/F [5]: 0.155 L/kg; half-life [6]: 1.28 h; Tmax [7]: 0.5 h; Cmax [8]: 43.3 nM; AUC(0-t) at 24 h [9]: 0.0786 µM·h; MRT last at 24 h [10]: 1.82 h
CC(C)COc1ccc(CNC(=O)N(Cc2ncc(F)cc2F)C2CCN(C)CC2)cc1	43.2 nM		
